In ChEMBL document CHEMBL1156714, “Microwave induced synthesis of novel 8,9-dihydro-7H-pyrimido[4,5-b][1,4]diazepines as potential antitumor agents” (2008):
Activity calls are given as the source filed them. No cut-off for these calls is given here.

Key:
HT-29 = test: Growth inhibition of human HT29 cells after 48 hrs by SRB assay; format: functional; conditions: HT-29, 48 h
CAKI-1 = test: Growth inhibition of human CAKI1 cells after 48 hrs by SRB assay; format: functional; conditions: CAKI-1, 48 h
SR = test: Growth inhibition of human SR cells after 48 hrs by SRB assay; format: functional
COLO 205 = test: Growth inhibition of human COLO205 cells after 48 hrs by SRB assay; format: functional; conditions: COLO 205, 48 h
MDA-MB-468 = test: Growth inhibition of human MDA-MB-468 cells after 48 hrs by SRB assay; format: functional; conditions: MDA-MB-468, 48 h
SNB-75 = test: Growth inhibition of human SNB75 cells after 48 hrs by SRB assay; format: functional; conditions: SNB-75, 48 h
[1] = Growth inhibition of human […] cells after 48 hrs by SRB assay; format: functional
NCI-H226 = test: Growth inhibition of human NCI-H226 cells after 48 hrs by SRB assay; format: functional; conditions: NCI-H226, 48 h
Hs-578T = test: Growth inhibition of human HS578T cells after 48 hrs by SRB assay; format: functional
IGROV-1 = test: Growth inhibition of human IGROV1 cells after 48 hrs by SRB assay; format: functional; conditions: IGROV-1, 48 h
[2] = Growth inhibition of human OVACR4 cells after 48 hrs by SRB assay; format: functional
HCT-15 = test: Growth inhibition of human HCT15 cells after 48 hrs by SRB assay; format: functional; conditions: HCT-15, 48 h
MCF7 = test: Growth inhibition of human MCF7 cells after 48 hrs by SRB assay; format: functional; conditions: MCF7, 48 h
MOLT-4 = test: Growth inhibition of human MOLT4 cells after 48 hrs by SRB assay; format: functional; conditions: MOLT-4, 48 h
NCI-H460 = test: Growth inhibition of human NCI-H460 cells after 48 hrs by SRB assay; format: functional; conditions: NCI-H460, 48 h
Malme-3M = test: Growth inhibition of human MALME-3M cells after 48 hrs by SRB assay; format: functional
U-251 = test: Growth inhibition of human U251 cells after 48 hrs by SRB assay; format: functional; conditions: U-251, 48 h
SN12C = test: Growth inhibition of human SN12C cells after 48 hrs by SRB assay; format: functional
SK-MEL-5 = test: Growth inhibition of human SK-MEL-5 cells after 48 hrs by SRB assay; format: functional; conditions: SK-MEL-5, 48 h
NCI-H23 = test: Growth inhibition of human NCI-H23 cells after 48 hrs by SRB assay; format: functional; conditions: NCI-H23, 48 h
SW-620 = test: Growth inhibition of human SW620 cells after 48 hrs by SRB assay; format: functional; conditions: SW-620, 48 h
T47D = test: Growth inhibition of human T47D cells after 48 hrs by SRB assay; format: functional
NCI-60 = test: Growth inhibition of human NCI-60 cells at 1.0 uM; format: functional, cell-based
HCC 2998 = test: Growth inhibition of human HCC2998 cells after 48 hrs by SRB assay; format: functional; conditions: HCC 2998, 48 h
DU-145 = test: Growth inhibition of human DU145 cells after 48 hrs by SRB assay; format: functional; conditions: DU-145, 48 h
MDA-MB-231 = test: Growth inhibition of human MDA-MB-231 cells after 48 hrs by SRB assay; format: functional; conditions: MDA-MB-231, 48 h
SF-268 = test: Growth inhibition of human SF268 cells after 48 hrs by SRB assay; format: functional; conditions: SF-268, 48 h
ACHN = test: Growth inhibition of human ACHN cells after 48 hrs by SRB assay; format: functional
RXF 393 = test: Growth inhibition of human […] cells after 48 hrs by SRB assay; format: functional; conditions: RXF 393, 48 h
KM12 = test: Growth inhibition of human KM12 cells after 48 hrs by SRB assay; format: functional; conditions: KM12, 48 h
SF-539 = test: Growth inhibition of human SF539 cells after 48 hrs by SRB assay; format: functional; conditions: SF-539, 48 h
TK-10 = test: Growth inhibition of human TK10 cells after 48 hrs by SRB assay; format: functional; conditions: TK-10, 48 h
A549 = test: Growth inhibition of human A549 cells after 48 hrs by SRB assay; format: functional; conditions: A549, 48 h
EKVX = test: Growth inhibition of human EKVX cells after 48 hrs by SRB assay; format: functional
A498 = test: Growth inhibition of human A498 cells after 48 hrs by SRB assay; format: functional; conditions: A498, 48 h
SK-MEL-28 = test: Growth inhibition of human SK-MEL-28 cells after 48 hrs by SRB assay; format: functional; conditions: SK-MEL-28, 48 h
NCI/ADR-RES = test: Growth inhibition of human NCI/ADR-RES cells after 48 hrs by SRB assay; format: functional
NCI-H322M = test: Growth inhibition of human NCI-H322M cells after 48 hrs by SRB assay; format: functional
SK-OV-3 = test: Growth inhibition of human SK-OV-3 cells after 48 hrs by SRB assay; format: functional; conditions: SK-OV-3, 48 h
UO-31 = test: Growth inhibition of human UO31 cells after 48 hrs by SRB assay; format: functional; conditions: UO-31, 48 h
[3] = Growth inhibition of human OVACR3 cells after 48 hrs by SRB assay; format: functional
NCI-H522 = test: Growth inhibition of human NCI-H522 cells after 48 hrs by SRB assay; format: functional; conditions: NCI-H522, 48 h
[4] = read-out: LC50 (the source's name)

Compound: Cc1ccc(C2=Nc3c(N)ncnc3NC(c3ccc4c(c3)OCO4)C2)cc1 (racemic)
- GI50 (HT-29): 3.81 µM
- CC50 (HT-29; [4]): > 100 µM
- GI50 (CAKI-1): 1.44 µM
- CC50 (CAKI-1; [4]): > 100 µM
- GI50 (SR): 0.25 µM
- LC50 (concentration killing 50% of cells) (SR): > 100 µM
- GI50 (COLO 205): 3.47 µM
- CC50 (COLO 205; [4]): > 100 µM
- GI50 (MDA-MB-468): 3.68 µM
- CC50 (MDA-MB-468; [4]): > 100 µM
- GI50 (SNB-75): 4.55 µM
- CC50 (SNB-75; [4]): > 100 µM
- GI50 [1]: 13.5 µM
- CC50 [1, 4]: > 100 µM
- GI50 (NCI-H226): 12.6 µM
- CC50 (NCI-H226; [4]): > 100 µM
- GI50 (Hs-578T): 7.28 µM
- CC50 (Hs-578T; [4]): > 100 µM
- GI50 (IGROV-1): 3.34 µM
- CC50 (IGROV-1; [4]): > 100 µM
- GI50 [2]: 17.7 µM
- LC50 [2]: > 100 µM
- GI50 (HCT-15): 3.14 µM
- CC50 (HCT-15; [4]): 55.2 µM
- GI50 (MCF7): 3.42 µM
- LC50 (MCF7): > 100 µM
- GI50 (MOLT-4): 2.66 µM
- CC50 (MOLT-4; [4]): > 100 µM
- GI50 (NCI-H460): 3.59 µM
- CC50 (NCI-H460; [4]): > 100 µM
- GI50 (Malme-3M): 3.01 µM
- CC50 (Malme-3M; [4]): > 100 µM
- GI50 (U-251): 4.55 µM
- CC50 (U-251; [4]): 44.5 µM
- GI50 (SN12C): 8.61 µM
- CC50 (SN12C; [4]): > 100 µM
- GI50 (SK-MEL-5): 3.85 µM
- CC50 (SK-MEL-5; [4]): > 100 µM
- GI50 (NCI-H23): 10.2 µM
- CC50 (NCI-H23; [4]): > 100 µM
- GI50 (SW-620): 3.56 µM
- CC50 (SW-620; [4]): > 100 µM
- GI50 (T47D): 5.72 µM
- CC50 (T47D; [4]): > 100 µM
- Activity (NCI-60): Active
- GI50 (HCC 2998): 6.29 µM
- LC50 (concentration killing 50% of cells) (HCC 2998): > 100 µM
- GI50 (DU-145): 4.52 µM
- CC50 (DU-145; [4]): 46.7 µM
- GI50 (MDA-MB-231): 4.37 µM
- CC50 (MDA-MB-231; [4]): 55.6 µM
- GI50 (SF-268): 4.06 µM
- LC50 (50% lethal concentration) (SF-268): 52.2 µM
- GI50 (ACHN): 7.74 µM
- LC50 (lethal concentration 50%) (ACHN): > 100 µM
- GI50 (RXF 393): 3.5 µM
- CC50 (RXF 393; [4]): > 100 µM
- GI50 (KM12): 3.79 µM
- CC50 (KM12; [4]): 75.1 µM
- GI50 (SF-539): 4.98 µM
- CC50 (SF-539; [4]): 69.9 µM
- GI50 (TK-10): 4.47 µM
- CC50 (TK-10; [4]): 69.7 µM
- GI50 (A549): 7.09 µM
- LC50 (A549): > 100 µM
- GI50 (EKVX): 16.2 µM
- CC50 (EKVX; [4]): > 100 µM
- GI50 (A498): 6.33 µM
- LC50 (A498): > 100 µM
- GI50 (SK-MEL-28): 10.2 µM
- CC50 (SK-MEL-28; [4]): > 100 µM
- GI50 (NCI/ADR-RES): 3.52 µM
- CC50 (NCI/ADR-RES; [4]): > 100 µM
- GI50 (NCI-H322M): 16.5 µM
- CC50 (NCI-H322M; [4]): > 100 µM
- GI50 (SK-OV-3): 15.8 µM
- CC50 (SK-OV-3; [4]): > 100 µM
- GI50 (UO-31): 10.8 µM
- CC50 (UO-31; [4]): 65.2 µM
- GI50 [3]: 2.75 µM
- LC50 [3]: 23.3 µM
- GI50 (NCI-H522): 3.67 µM
- CC50 (NCI-H522; [4]): > 100 µM
